Tests used:
Experiment in all cases: cells
[1] = tested on: RS4-11; assay type: functional, cell-based; settings: Homo sapiens;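 note: growth inhibition of RS4-11 cells, read out by a cell viability assay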
Description: SANGER: Inhibition of human RS4-11 cell growth in a cell viability assay.

[2] = tested on: ETK-1; assay type: functional, cell-based; settings: Homo sapiens;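 note: growth inhibition of human ETK-1 cells, read out with a cell viability assay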
Description: SANGER: Inhibition of human ETK-1 cell growth in a cell viability assay.

[3] = tested on: C-33-A; assay type: functional, cell-based; settings: Homo sapiens;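 note: cell viability assay measuring growth inhibition of C-33-A cells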
Description: SANGER: Inhibition of human C-33-A cell growth in a cell viability assay.

[4] = tested on: NCI-H1304; assay type: functional, cell-based; settings: Homo sapiens;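 note: growth inhibition of the cancer cell line, measured in a cell viability assay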
Description: SANGER: Inhibition of human NCI-H1304 cell growth in a cell viability assay.

[5] = tested on: NCI-H2228; assay type: functional, cell-based; settings: Homo sapiens;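 note: growth inhibition of human NCI-H2228 cells, read out by a cell viability assay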
Description: SANGER: Inhibition of human NCI-H2228 cell growth in a cell viability assay.

[6] = tested on: MFM-223; assay type: functional, cell-based; settings: Homo sapiens
Description: SANGER: Inhibition of human MFM-223 cell growth in a cell viability assay.

[7] = tested on: NOMO-1; assay type: functional, cell-based; settings: Homo sapiens;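 note: growth inhibition of human NOMO-1 cells measured by a cell viability assay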
Description: SANGER: Inhibition of human NOMO-1 cell growth in a cell viability assay.

[8] = tested on: Ramos-2G6-4C10; assay type: functional, cell-based; settings: Homo sapiens;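 note: growth inhibition of the cell line, measured by a cell viability read-out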
Description: SANGER: Inhibition of human Ramos-2G6-4C10 cell growth in a cell viability assay.

[9] = tested on: HCE-T; assay type: functional, cell-based; settings: Homo sapiens;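 note: cell viability assay read-out, reporting inhibition of HCE-T cell growth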
Description: SANGER: Inhibition of human HCE-T cell growth in a cell viability assay.

[10] = tested on: KNS-81-FD; assay type: functional, cell-based; settings: Homo sapiens;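 note: growth inhibition of KNS-81-FD cells, read out with a cell viability assay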
Description: SANGER: Inhibition of human KNS-81-FD cell growth in a cell viability assay.

[11] = tested on: SF-539; assay type: functional, cell-based; settings: Homo sapiens;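 note: Read-out is a cell viability assay, with IC50 reflecting inhibition of cell growth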
Description: SANGER: Inhibition of human SF539 cell growth in a cell viability assay.

[12] = tested on: U-87 MG; assay type: functional, cell-based, U-87MG ATCC; settings: Homo sapiens;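 note: growth inhibition of the cells measured with a viability assay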
Description: SANGER: Inhibition of human U-87-MG cell growth in a cell viability assay.

[13] = tested on: KARPAS-45; assay type: functional, cell-based; settings: Homo sapiens;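 note: inhibition of cell line growth, read out through a viability assay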
Description: SANGER: Inhibition of human KARPAS-45 cell growth in a cell viability assay.

[14] = tested on: LB2241-RCC; assay type: functional, cell-based; settings: Homo sapiens;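 note: cell viability assay measuring how strongly the cultured human renal carcinoma line is prevented from growing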
Description: SANGER: Inhibition of human LB2241-RCC cell growth in a cell viability assay.

[15] = tested on: ML-2; assay type: functional, cell-based; settings: Homo sapiens;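 note: growth inhibition of ML-2 cells, measured with a cell viability readout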
Description: SANGER: Inhibition of human ML-2 cell growth in a cell viability assay.

[16] = tested on: NEC8; assay type: functional, cell-based; settings: Homo sapiens;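 note: growth inhibition of human NEC8 cells, read out by a cell viability assay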
Description: SANGER: Inhibition of human NEC8 cell growth in a cell viability assay.

[17] = tested on: OCI-AML2; assay type: functional, cell-based; settings: Homo sapiens;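 note: growth inhibition of OCI-AML2 cells, read out with a cell viability assay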
Description: SANGER: Inhibition of human OCI-AML2 cell growth in a cell viability assay.

[18] = tested on: KMOE-2; assay type: functional, cell-based; settings: Homo sapiens;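 note: growth inhibition of human KMOE-2 cells, read out with a cell viability assay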
Description: SANGER: Inhibition of human KMOE-2 cell growth in a cell viability assay.

[19] = tested on: MZ2-MEL; assay type: functional, cell-based; settings: Homo sapiens;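 note: growth inhibition of MZ2-MEL cells read out with a cell viability assay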
Description: SANGER: Inhibition of human MZ2-MEL cell growth in a cell viability assay.

[20] = tested on: CAL-12T; assay type: functional, cell-based, Homo sapiens; settings: Homo sapiens, CAL-12T;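 note: growth inhibition of human CAL-12T cells, read out with a cell viability assay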
Description: SANGER: Inhibition of human CAL-12T cell growth in a cell viability assay.

[21] = tested on: HT-144; assay type: functional, cell-based; settings: Homo sapiens
Description: SANGER: Inhibition of human HT-144 cell growth in a cell viability assay.

[22] = tested on: NCI-H1395; assay type: functional, cell-based; settings: Homo sapiens;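 note: cell viability assay read-out quantifying reduced proliferation of human NCI-H1395 cells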
Description: SANGER: Inhibition of human NCI-H1395 cell growth in a cell viability assay.

[23] = tested on: HD-MY-Z; assay type: functional, cell-based; settings: Homo sapiens;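 note: growth inhibition of HD-MY-Z cells, read out with a cell viability assay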
Description: SANGER: Inhibition of human HD-MY-Z cell growth in a cell viability assay.

[24] = tested on: P30-OHK; assay type: functional, cell-based; settings: Homo sapiens;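 note: growth inhibition of the P30-OHK cell line, read out with a cell viability assay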
Description: SANGER: Inhibition of human P30-OHK cell growth in a cell viability assay.

[25] = tested on: TE-6; assay type: functional, cell-based; settings: Homo sapiens;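 note: growth inhibition of TE-6 cells, read out with a cell viability assay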
Description: SANGER: Inhibition of human TE-6 cell growth in a cell viability assay.

[26] = tested on: CAS-1; assay type: functional, cell-based; settings: Homo sapiens;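 note: growth inhibition of CAS-1 cells, measured with a cell viability assay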
Description: SANGER: Inhibition of human CAS-1 cell growth in a cell viability assay.

[27] = tested on: NCI-H1155; assay type: functional, cell-based; settings: Homo sapiens;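 note: cell growth inhibition measured by a viability assay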
Description: SANGER: Inhibition of human NCI-H1155 cell growth in a cell viability assay.

[28] = tested on: LS-123; assay type: functional, cell-based; settings: Homo sapiens
Description: SANGER: Inhibition of human LS-123 cell growth in a cell viability assay.

[29] = tested on: GB-1; assay type: functional, cell-based; settings: Homo sapiens;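 note: growth of GB-1 cells judged by a viability assay, IC50 marks the concentration inhibiting growth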
Description: SANGER: Inhibition of human GB-1 cell growth in a cell viability assay.

[30] = tested on: EW-13; assay type: functional, cell-based; settings: Homo sapiens;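 note: growth inhibition of EW-13 cells, read out with a cell viability assay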
Description: SANGER: Inhibition of human EW-13 cell growth in a cell viability assay.

[31] = tested on: 769-P; assay type: functional, cell-based; settings: Homo sapiens
Description: SANGER: Inhibition of human 769-P cell growth in a cell viability assay.

[32] = tested on: OE19; assay type: functional, cell-based; settings: Homo sapiens;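 note: growth inhibition of OE19 cells, measured through a cell viability read-out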
Description: SANGER: Inhibition of human OE19 cell growth in a cell viability assay.

[33] = tested on: QIMR-WIL; assay type: functional, cell-based; settings: Homo sapiens;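 note: growth inhibition of QIMR-WIL cells, read out with a cell viability assay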
Description: SANGER: Inhibition of human QIMR-WIL cell growth in a cell viability assay.

[34] = tested on: SK-N-FI; assay type: functional, cell-based; settings: Homo sapiens;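 note: cell viability assay measuring growth inhibition of human SK-N-FI cells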
Description: SANGER: Inhibition of human SK-N-FI cell growth in a cell viability assay.

[35] = tested on: GAK; assay type: functional, cell-based; settings: Homo sapiens;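 note: cell growth inhibition read out by a cell viability assay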
Description: SANGER: Inhibition of human GAK cell growth in a cell viability assay.

[36] = tested on: TE-9; assay type: functional, cell-based; settings: Homo sapiens;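 note: cell growth inhibition, measured with a cell viability readout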
Description: SANGER: Inhibition of human TE-9 cell growth in a cell viability assay.

[37] = tested on: MOLT-4; assay type: functional, cell-based; settings: Homo sapiens;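 note: growth inhibition of MOLT-4 cells, determined with a cell viability readout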
Description: SANGER: Inhibition of human MOLT-4 cell growth in a cell viability assay.

[38] = tested on: ES5; assay type: functional, cell-based; settings: Homo sapiens;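 note: growth inhibition of human ES5 cells, read out by a cell viability assay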
Description: SANGER: Inhibition of human ES5 cell growth in a cell viability assay.

[39] = tested on: SNB-75; assay type: functional, cell-based; settings: Homo sapiens;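 note: cell viability assay measuring growth inhibition of human SNB-75 cells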
Description: SANGER: Inhibition of human SNB75 cell growth in a cell viability assay.

[40] = tested on: Detroit 562; assay type: functional, cell-based; settings: Homo sapiens;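 note: growth inhibition of human Detroit 562 cells, read out by a cell viability assay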
Description: SANGER: Inhibition of human Detroit562 cell growth in a cell viability assay.

[41] = tested on: UACC-257; assay type: functional, cell-based; settings: Homo sapiens
Description: SANGER: Inhibition of human UACC-257 cell growth in a cell viability assay.

[42] = tested on: HCE-4; assay type: functional, cell-based; settings: Homo sapiens;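 note: cell viability assay measuring inhibition of growth in the human HCE-4 cell line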
Description: SANGER: Inhibition of human HCE-4 cell growth in a cell viability assay.

[43] = tested on: REH; assay type: functional, cell-based; settings: Homo sapiens;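 note: growth inhibition of REH cells determined with a cell viability read-out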
Description: SANGER: Inhibition of human REH cell growth in a cell viability assay.

[44] = tested on: KM12; assay type: functional, cell-based; settings: Homo sapiens;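 note: KM12 cell growth inhibition, read out with a cell viability assay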
Description: SANGER: Inhibition of human KM12 cell growth in a cell viability assay.

[45] = tested on: CTV-1; assay type: functional, cell-based; settings: Homo sapiens;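 note: growth inhibition of the cell line, read out with a cell viability assay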
Description: SANGER: Inhibition of human CTV-1 cell growth in a cell viability assay.

[46] = tested on: NY; assay type: functional, cell-based; settings: Homo sapiens
Description: SANGER: Inhibition of human NY cell growth in a cell viability assay.

[47] = tested on: COLO-792; assay type: functional, cell-based; settings: Homo sapiens
Description: SANGER: Inhibition of human COLO-792 cell growth in a cell viability assay.

[48] = tested on: CA46; assay type: functional, cell-based; settings: Homo sapiens;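 note: growth inhibition of human CA46 cells, read out by a cell viability assay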
Description: SANGER: Inhibition of human CA46 cell growth in a cell viability assay.

[49] = tested on: EOL1; assay type: functional, cell-based; settings: Homo sapiens;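 note: growth inhibition of EoL-1 cells, read out by a cell viability assay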
Description: SANGER: Inhibition of human EoL-1-cell cell growth in a cell viability assay.

[50] = tested on: SNU-5; assay type: functional, cell-based; settings: Homo sapiens;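 note: cell viability readout used to measure growth inhibition in human NCI-SNU-5 cells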
Description: SANGER: Inhibition of human NCI-SNU-5 cell growth in a cell viability assay.

[51] = tested on: DMS-79; assay type: functional, cell-based; settings: Homo sapiens;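 note: growth inhibition measured with a cell viability assay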
Description: SANGER: Inhibition of human DMS-79 cell growth in a cell viability assay.

[52] = tested on: RKO; assay type: functional, cell-based; settings: Homo sapiens;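 note: growth inhibition of human RKO cells, read out with a cell viability assay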
Description: SANGER: Inhibition of human RKO cell growth in a cell viability assay.

[53] = tested on: SK-LMS-1; assay type: functional, cell-based; settings: Homo sapiens;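 note: growth inhibition of human SK-LMS-1 cells, read out with a cell viability assay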
Description: SANGER: Inhibition of human SK-LMS-1 cell growth in a cell viability assay.

[54] = tested on: KG-1; assay type: functional, cell-based; settings: Homo sapiens;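 note: growth inhibition of KG-1 cells, read out by a cell viability assay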
Description: SANGER: Inhibition of human KG-1 cell growth in a cell viability assay.

[55] = tested on: SH-4; assay type: functional, cell-based; settings: Homo sapiens;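 note: growth inhibition of SH-4 cells, read out with a cell viability assay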
Description: SANGER: Inhibition of human SH-4 cell growth in a cell viability assay.

[56] = tested on: DB; assay type: functional, cell-based; settings: Homo sapiens
Description: SANGER: Inhibition of human DB cell growth in a cell viability assay.

[57] = tested on: OS-RC-2; assay type: functional, cell-based; settings: Homo sapiens;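 note: growth inhibition of human OS-RC-2 cells, measured by a cell viability assay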
Description: SANGER: Inhibition of human OS-RC-2 cell growth in a cell viability assay.

[58] = tested on: GR-ST; assay type: functional, cell-based; settings: Homo sapiens
Description: SANGER: Inhibition of human GR-ST cell growth in a cell viability assay.

[59] = tested on: IST-SL1; assay type: functional, cell-based; settings: Homo sapiens;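 note: growth inhibition of human IST-SL1 cells, read out with a cell viability assay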
Description: SANGER: Inhibition of human IST-SL1 cell growth in a cell viability assay.

[60] = tested on: KU812 cell line; assay type: functional, cell-based; settings: Homo sapiens
Description: SANGER: Inhibition of human KU812 cell growth in a cell viability assay.

[61] = tested on: SCC-15; assay type: functional, cell-based; settings: Homo sapiens
Description: SANGER: Inhibition of human SCC-15 cell growth in a cell viability assay.

[62] = tested on: SW 954; assay type: functional, cell-based; settings: Homo sapiens
Description: SANGER: Inhibition of human SW954 cell growth in a cell viability assay.

[63] = tested on: DOHH-2; assay type: functional, cell-based; settings: Homo sapiens
Description: SANGER: Inhibition of human DOHH-2 cell growth in a cell viability assay.

[64] = tested on: LB2518-MEL; assay type: functional, cell-based; settings: Homo sapiens
Description: SANGER: Inhibition of human LB2518-MEL cell growth in a cell viability assay.

Measured: IC50

C/C(O)=C(\C#N)C(=O)Nc1cc(Br)ccc1Br
> 16 µM: all assays above
